Test results published in US20190240379A1, “NOVEL COMPOSITIONS ACTIVE ON ADIPOCYTES” (BIOXIS PHARMACEUTICALS, priority 2016, published 2019).

Test system: 3T3L1 murine adipocyte line
Description: For example, a 2% (w/w) chitosan preparation obtained in example 1 (DA: 2%, Mw: 450000 g·mol^−1, Bioxis Pharmaceuticals S.A.S.) is diluted in a saline solution (NaCl at 300 mOsmol·l^−1) containing 1% (w/w) of acetic acid in a well (in 24-well plates) and then distributed over half of the other wells, dried, rinsed with PBS and then with the culture medium before cell seeding (3T3L1 murine adipocyte line ATCC CL-173™). When the cells are at confluence, differentiation is induced by adding a differentiation medium. The cells are then treated with a small dose of oleic acid (OA, 2.5 μM) for 6 hours. The cells are put back in a culture medium without OA until the next day in order to avoid any background noise from the OA. Proliferation is analysed by phase contrast microscopy (×20): the images are taken at various times (2 days and 5 days post seeding), at an identical position for each well. […] The marking is observed in fluorescence microscopy and quantification carried out by imaging. The imaging and the fluorescence quantification are carried out on a real-time imaging station. The controls are fixed before the induction of differentiation (confluence, DO).

chitosan
chitosan concentration with toxic effect on the 3T3L1 line: greater than or equal to 2% | morphology of the cells: aggressive or even toxic medium
